“And” between values parts separate entries of the source, which are not always exact repeats. Equal entries are not always repeated.
Experiments:
C5a receptor [1] = molecular target: T1, C5a receptor (Homo sapiens, UniProt P21730); assay: Calcium Mobilization Assay (C5a-induced Ca2+ mobilization, FLIPR, differentiated U937 cells); format: cell-based; set-up: endogenous in cells; host or cells: U937 cells differentiated with dibutyryl cAMP; settings: […] recombinant human C5a, 20 min pre-incubation, multiple values = duplicate experiments, read-out: C5a Induced Ca Mobil. Average IC50
T1 sequence (P21730 1-350): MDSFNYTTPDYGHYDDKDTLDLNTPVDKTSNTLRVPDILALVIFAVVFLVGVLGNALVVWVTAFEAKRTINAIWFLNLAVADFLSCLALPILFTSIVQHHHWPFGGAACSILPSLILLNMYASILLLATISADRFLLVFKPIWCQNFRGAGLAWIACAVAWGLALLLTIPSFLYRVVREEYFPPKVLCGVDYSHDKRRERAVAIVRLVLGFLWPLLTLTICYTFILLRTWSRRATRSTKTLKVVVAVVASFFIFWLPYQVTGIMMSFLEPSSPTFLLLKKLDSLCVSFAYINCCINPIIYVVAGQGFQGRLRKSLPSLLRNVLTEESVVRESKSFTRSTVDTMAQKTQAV
Experimental: U937 cells (human monocytic cell line) were cultured in RPMI-1640 medium supplemented with 10% fetal bovine serum, 10 mM HEPES, 0.11 g/L pyruvate, 0.29 g/L L-glutamine, 100 IU/mL penicillin G and […] streptomycin. Dibutyryl cAMP (1 mM) was added to induce differentiation 2 or 3 days prior to loading the cells with 4.4 μM Fluo-3AM (Molecular Probes) for 30 min at 37° C. in RPMI medium containing 20 mM HEPES, 0.1% bovine serum albumin (BSA) and 5 mM probenecid. After washing, cells were dissolved at 2×10^6 cells/ml in HBSS buffer (Invitrogen 14190-094) supplemented with 10 mM HEPES, 2.5 mM probenecid and 0.1% BSA (pH=7.4), and sedimented by 1 min centrifugation (1500 rpm) in black 96-well plates (Costar) (200,000 cells/well). A 100× concentration range of test compounds was prepared in DMSO and further diluted in HBSS buffer. U937 cells were pre-incubated with compound for 20 minutes at room temperature (1% DMSO), before recombinant human C5a (Sigma) was added to the cells (1.5 nM). Changes in intracellular free Ca^2+ concentration were measured using the Fluorescent Imaging Plate Reader (FLIPR, Molecular Devices). Fluorescence was recorded every second from 10 seconds before the addition of C5a until 2 min after the addition. The maximal fluorescence obtained during this time frame was used for further calculations.

C5a receptor [2] = molecular target: T1, C5a receptor; assay: [125I]-C5a Radioligand Binding Assay (competition binding, differentiated U937 cells); settings: [125I]-C5a 0.05 nM, U937 cells, multiple values = duplicate experiments; for inhibition at 1 µM: read-out: [125I]-C5a Binding % Inhibition 1 μM, test compound 1 μM; for inhibition at 10 µM: read-out: [125I]-C5a Binding % Inhibition 10 μM, test compound 10 μM; for [125I]-C5a Binding % Inhibition 1 μM: test compound 1 μM; for [125I]-C5a Binding % Inhibition 10 μM: test compound 10 μM;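 as to all read-outs here: cells preincubated with compound 30 min at room temperature, then 60 min at 4 °C with radioligand, bound counts read by scintillation, nonspecific binding defined with 100 nM C5a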
Experimental: (§1) Competition binding assays for C5a receptors were performed by incubation of differentiated U937 cells (200,000 cells/well), test compound (1% DMSO) and [^125I]-C5a (Bolton & Hunter labeled, Perkin Elmer, specific activity=2200 Ci/mmol, 0.05 nM final) in binding buffer consisting of 50 mM HEPES, 5 mM MgCl2, 1 mM CaCl2, 0.5% protease-free BSA, 0.02% NaN3, pH 7.4. 100× solutions of test compounds were prepared in DMSO and further diluted in binding buffer. Non-specific binding was defined in wells containing 100 nM recombinant C5a. Cells and compound were pre-incubated for 30 min at RT. After addition of the radioligand, further incubation for 60 min occurred at 4° C. Cells were harvested on GF/B filters—presoaked in 0.5% polyethylenimine, followed by washing with binding buffer containing 500 mM NaCl, pH 7.4. Filter bound radioactivity was determined by liquid scintillation counting. IC50 and Ki values were calculated using non-linear regression in Graphpad Prism. Ki is calculated using the equation of Cheng and Prusoff (Biochem. Pharmacol. 1973, 22: 3099-3108)

C5a receptor [3] = molecular target: T1, C5a receptor
Experimental: as §1

| Structure (SMILES) | IC50 (C5a receptor [1]) [µM] | inhibition at 1 µM (C5a receptor [2]) [%] | inhibition at 10 µM (C5a receptor [2]) [%] | Ki (C5a receptor [3]) [µM] | [125I]-C5a Binding % Inhibition 1 μM (C5a receptor [2]) | [125I]-C5a Binding % Inhibition 10 μM (C5a receptor [2]) |
| --- | --- | --- | --- | --- | --- | --- |
| CCc1cccc(CC)c1-c1cc(OC)c2c(n1)CCCC2Nc1ccc(Cl)cc1CO (stereo not drawn) [Compound 9] | 0.071 | 91 | 97 | 0.013 | – | – |
| CCc1cccc(CC)c1-c1cc(OC)c2c(n1)CCCC2Nc1cc(OC)ccc1C (stereo not drawn) [Compound 11] | – | 88 | 92 | 0.01 | 96% | 97% |
| CCc1cccc(CC)c1-c1cc(OC)c2c(n1)CCCC2N1CCc2cccc(C(F)(F)F)c2C1 (stereo not drawn) [Compound 26] | 0.266 | 93 | 94 | 0.0097 | 96% | 99% |
| CCc1cccc(CC)c1-c1cc(OC)c2c(n1)CCCC2N1CCc2ccccc2C1 (stereo not drawn) [Compound 31] | – | – | 87 | 0.035 | 77% and 94% and 96% and 69% | 101% and 100% and 83% |
| CCc1cccc(CC)c1-c1cc(OC)c2c(n1)CCC[C@@H]2N(C)[C@@H]1CCCc2ccccc21 [Compound 59] | 1.9 | – | – | 0.057 | 91% | 89% |
| CCc1cccc(CC)c1-c1cc(Cl)c2c(n1)CCCC2N(CC)c1cccc2ccccc12 (stereo not drawn) [Compound 60] | 1.97 | – | 83 | 0.179 | – | 85% |
| CCN(c1cccc2ccccc12)C1CCCc2nc(-c3ccccc3F)cc(OC)c21 (stereo not drawn) [Compound 73] | 4.59 | – | 80 | 3.69 | 55% and 34% | 70% |
| CCc1cccc(CC)c1-c1cc(OC)c2c(n1)CCCC2N(C)CCc1ccccc1 (stereo not drawn) [Compound 87] | > 10 | – | – | – | 17% | 51% |
| CCc1cccc(CC)c1-c1cc(OC)c2c(n1)CCCC2NC1Cc2ccccc2C1 (stereo not drawn) [Compound 88] | > 10 | 25 | 51 | – | – | – |
| CCc1cccc(CC)c1-c1cc(OC)c2c(n1)CCCC2N(C)CCCc1ccccc1 (stereo not drawn) [Compound 91] | > 10 | – | – | – | 20% | 60% |
| CCc1cccc(CC)c1-c1cc(OC)c2c(n1)CCCC2N(C)Cc1ccco1 (stereo not drawn) [Compound 92] | > 10 | 24 | 62 | – | – | – |
| CCc1cccc(CC)c1-c1cc(OC)c2c(n1)CCCC2N1CCc2ccccc21 (stereo not drawn) [Compound 93] | > 10 | 68 | 80 | – | – | – |
| CCc1cccc(CC)c1-c1cc(OC)c2c(n1)CCCC2N(C)Cc1cccs1 (stereo not drawn) [Compound 94] | > 10 | 56 | 77 | – | – | – |
| CCc1cccc(CC)c1-c1cc(OC)c2c(n1)CCCC2N1CCc2ccc(C#N)cc2C1 (stereo not drawn) [Compound 96] | > 10 | 77 | 87 | – | – | – |
| CCc1cccc(CC)c1-c1cc(OC)c2c(n1)CCCC2N1CCc2ccc(C(=O)OC)cc2C1 (stereo not drawn) [Compound 97] | > 10 | 47 | 59 | – | – | – |
| CCc1cccc(CC)c1-c1cc(OC)c2c(n1)CCCC2N1CCc2cc(C(=O)OC)ccc2C1 (stereo not drawn) [Compound 98] | > 10 | 43 | 70 | – | – | – |
| CCc1cccc(CC)c1-c1cc(OC)c2c(n1)CCCC2N1CCc2c(cccc2C(=O)OC)C1 (stereo not drawn) [Compound 99] | > 10 | 59 | 76 | – | – | – |
| CCc1cccc(CC)c1-c1cc(OC)c2c(n1)CCCC2N1CCc2cc(C(F)(F)F)ccc2C1 (stereo not drawn) [Compound 102] | > 10 | 74 | 80 | – | – | – |
| CCc1cccc(CC)c1-c1cc(OC)c2c(n1)CCCC2N(C)c1cccc2ccccc12 (stereo not drawn) [Compound 104] | > 10 | 56 | 64 | – | – | – |
| CCc1cccc(CC)c1-c1cc(OC)c2c(n1)CCCC2Oc1cccc2ccccc12 (stereo not drawn) [Compound 105] | > 10 | 55 | 70 | – | – | – |

| Structure (SMILES) | IC50 (C5a receptor [1]) [µM] | inhibition at 1 µM (C5a receptor [2]) [%] | inhibition at 10 µM (C5a receptor [2]) [%] | Ki (C5a receptor [3]) [µM] | [125I]-C5a Binding % Inhibition 1 μM (C5a receptor [2]) | [125I]-C5a Binding % Inhibition 10 μM (C5a receptor [2]) |
| --- | --- | --- | --- | --- | --- | --- |
| COc1cc(-c2c(C)cccc2C)nc2c1C(N(C)c1cc(C)ccc1C(C)C)CCC2 (stereo not drawn) [Compound 110] | > 10 | 77 | 82 | – | – | – |
| COc1cc(-c2c(C)cccc2C)nc2c1C(Oc1cc(C(C)C)ccc1C)CCC2 (stereo not drawn) [Compound 111] | > 10 | 82 | 85 | – | – | – |
| COc1cc(-c2c(C)cccc2C)nc2c1C(N(C)c1cccc3c1CCN(C)C3)CCC2 (stereo not drawn) [Compound 112] | > 10 | 36 | 70 | – | – | – |
| COc1cc(-c2c(C)cccc2C)nc2c1C(N(C)c1cccc3[nH]ccc13)CCC2 (stereo not drawn) [Compound 113] | > 10 | – | – | – | 33% | 54% |
| COc1cc(-c2c(C)cccc2C)nc2c1C(N(C)c1cccc(Cl)c1C)CCC2 (stereo not drawn) [Compound 115] | > 10 | 75 | 80 | – | – | – |
| COc1ccc2cccc(N(C)C3CCCc4nc(-c5c(C)cccc5C)cc(OC)c43)c2c1 (stereo not drawn) [Compound 116] | > 10 | 87 | 86 | – | – | – |
| COc1cccc(N(C)C2CCCc3nc(-c4c(C)cccc4C)cc(OC)c32)c1C (stereo not drawn) [Compound 117] | > 10 | – | – | – | 86% | 85% |
| CCc1cccc(CC)c1-c1cc(OC)c2c(n1)CCCC2Nc1c(C)ccc2ccccc12 (stereo not drawn) [Compound 119] | > 10 | 64 | 74 | – | – | – |
| CCc1cccc(CC)c1-c1cc(OC)c2c(n1)CCCC2Nc1cccc2c1CCC2 (stereo not drawn) [Compound 121] | > 10 | 59 | 75 | – | – | – |
| CCc1cccc(CC)c1-c1cc(OC)c2c(n1)CCCC2N(C)Cc1ccccc1 (stereo not drawn) [Compound 123] | > 10 | 3 | 39 | – | – | – |
| CCc1cccc(CC)c1-c1cc(OC)c2c(n1)CCCC2N(C)C1CCCCC1 (stereo not drawn) [Compound 124] | > 10 | 2 | 33 | – | – | – |
| CCc1cccc(CC)c1-c1cc(OC)c2c(n1)CCCC2N(C)Cc1cccnc1 (stereo not drawn) [Compound 125] | > 10 | -11 | 45 | – | – | – |
| CCc1cccc(CC)c1-c1cc(OC)c2c(n1)CCCC2N1CCCC1 (stereo not drawn) [Compound 126] | > 10 | -11 | 18 | – | – | – |
| CCc1cccc(CC)c1-c1cc(OC)c2c(n1)CCCC2N1CCc2cc(C(=O)O)ccc2C1 (stereo not drawn) [Compound 128] | > 10 | -25 | -9 | – | – | – |
| CCc1cccc(CC)c1-c1cc(OC)c2c(n1)CCCC2N1CCc2c(cccc2C(=O)O)C1 (stereo not drawn) [Compound 129] | > 10 | -46 | -20 | – | – | – |
| CCc1cccc(CC)c1-c1cc(OC)c2c(n1)CCCC2N1CCc2cccc(C(=O)O)c2C1 (stereo not drawn) [Compound 130] | > 10 | -24 | -13 | – | – | – |
| CCc1cccc(CC)c1-c1cc(OC)c2c(n1)CCCC2N1CCc2ccc(C(=O)O)cc2C1 (stereo not drawn) [Compound 131] | > 10 | -26 | -9 | – | – | – |
| CCN(c1cccc2ccccc12)C1CCCc2nc(-c3ccccc3)cc(OC)c21 (stereo not drawn) [Compound 133] | – | – | – | 8.29 | – | – |
| CCc1cccc(CC)c1-c1cc(OC)c2c(n1)CCCC2N(CC)c1ncnc2ccccc12 (stereo not drawn) [Compound 135] | > 10 | 16 | 47 | – | – | – |

— patent US20090048295A1, “SUBSTITUTED 5,6,7,8-TETRAHYDROQUINOLINE DERIVATIVES, COMPOSITIONS, AND METHODS OF USE THEREOF” (priority 2007, published 2009)
